In patent US20190298743A1, “TREATMENT OF PAIN” (Takeda Pharmaceutical Company Limited, priority 2016, published 2019):

Columns and labels:
PAR2 [1] = assay: BRET receptor trafficking, PAR2-RLuc8 with plasma membrane marker RIT-venus in HEK293 cells; assay type: cell-based; details: for Effect on trypsin evoked internalisation, plasma membrane marker: 30 μM inhibitor, 30 minute pre-treatment
Description: (§1) Bret studies of receptor trafficking were conducted to quantify PAR2 internalisation (RIT-venus) and trafficking to early endosomes (Rab5a-venus) upon stimulation with different agonists.
(§2) After achieving ˜50% confluency within 10 cm dishes HEK293 cells were transiently transfected with 1 μg PAR2-RLuc8 and 4 μg of either RIT-venus or Rab5a-venus using PEI as a transfection agent. 24 hours post transfection, cells were seeded into poly-D-lysine coated 96-well isoplates. […] When used endocytic inhibitors were diluted in 1×HBSS+1% dimethyl sulfoxide (DMSO). Following the replacement of culture media cells were allowed to equilibrate at 37° C. for 30 minutes before the addition of colenterazine H [5 μM]. After a further 5 minute incubation BRET was assessed using a LUMIstar Omega microplate reader (BMG LabTech, Offenburg, Germany), with luminescence being read at 535 nm and 475 nm. A 4 minute baseline was obtained before the addition of vehicle (1×HBSS+/−1% DMSO) or protease, measurements were then continued for a further 30 minutes. BRET ratios were calculated using LUMIstar MARS analysis software and then corrected to baseline and vehicle treatments in Microsoft Excel 2013.

[2] = Protease-evoked paw edema, hindpaw thickness; assay type: in vivo, mice
Description: (§3) Immediately before experiments the mice were acclimatized to the experimental apparatus, room and investigator for 1-2 h on 2 successive days. Mechanical nociceptive responses were evaluated by paw withdrawal to stimulation of the plantar surface of the hind-paw with calibrated von Frey filaments. von Frey scores were measured in triplicate to establish a baseline for each animal on the day before experiments. Paw edema was estimated by measuring the thickness of the hindpaw using digital calipers before and after treatments. Mice were […] with 5% isoflurane for intraplantar injections. Dyngo4a (50 μM), PitStop2 (50 μM) or vehicle (0.2% DMSO in 0.9% NaCl) (all 10 μl) were injected into the left hindpaw. After 30 min, trypsin (10 nM), Cat-S (2.5 μM) or elastase (30 U) (all 10 μl) were injected into the same left hindpaw. von Frey scores (left and right paws) and paw thickness (left paw) were measured hourly for up to 4 h after protease injection. Investigators were blinded to the test agents.

DRG neurons = assay: Perforated patch-clamp excitability (rheobase) of isolated DRG neurons; assay type: cell-based, mice; details: for Effect of inhibitor alone on rheobase: 0 or 30 min; for Effect on cathepsin S- or elastase-induced decrease in rheobase (sustained excitability) at 30 min / Effect on trypsin-induced decrease in rheobase (sustained excitability) at 30 min / Effect on protease induced decrease in rheobase (initial hyperexcitability) at 0 min: inhibitor 30 min before and during protease; for Effect on protease induced decrease in rheobase (initial hyperexcitability) at 0 min: trypsin, cathepsin S or elastase
Description: To assess the effects of proteases on excitability of nociceptors, DRG neurons were preincubated with trypsin, cathepsin S, elastase or vehicle (control), washed, and rheobase and action potential discharge at a current of twice rheobase were measured at 0 min or 30 min after washing.
DRG (T9-T13) from C57BL/6 mice were digested by incubation in collagenase (1 mg/ml, Worthington Biochemical, Lakewood, N.J.) and dispase (4 mg/ml, Roche Life Science, Indianapolis, Ind.) for 10 min at 37° C., and were dispersed by trituration with a fire-polished Pasteur pipette. Cells were plated onto coverslips coated with laminin (0.017 mg/ml) and poly-D-lysine (2 mg/ml) in 24-well plates. Neurons were cultured in F12 medium (Cat N668, Lot RNBD5333, Sigma-Aldrich, St Louis, Mo. USA) containing 10% fetal calf serum, with penicillin and streptomycin and maintained at 37° C. in a humidified atmosphere of 95% air and 5% CO2 until retrieval (16 h) for electrophysiological studies.
Neuronal excitability was assessed by perforated patch-clamp recordings with amphotericin B (240 μg/ml) from small diameter neurons (<30 pF capacitance) in current clamp mode at room temperature. Only neurons with resting membrane potentials more negative than −40 mV were analyzed. Changes in excitability were quantified by measuring rheobase (minimum current to fire action potential) and numbers of action potentials discharged at twice rheobase. Recordings were made using Axopatch 200B amplifiers, digitized by Digidata 1322A and stored and processed using pClamp 10.1 software (Molecular Devices, Sunnyvale, Calif.). The recording chamber was continuously perfused with external solution at 2 ml/min. External solution was (mM): 140 NaCl, 5 KCl, 10 HEPES, 10 D-glucose, 1 MgCl2, 2 CaCl2; pH to 7.4 with 3 M NaOH. Pipette solution was (mM): 110 K-gluconate, 30 KCl, 10 HEPES, 1 MgCl2, 2 CaCl2; pH 7.25 with 1 M KOH.
DRG neurons were pre-incubated with vehicle (control) or proteases using conditions that we have reported to cause robust hyperexcitability: trypsin (50 nM, 10 min), elastase (10 U/ml, 390 nM, 30 min), Cat-S (500 nM, 60 min). Neurons were then washed and maintained in protease-free F12 medium. Neuronal excitability was assessed 0 or 30 min after washing. In some experiments, neurons were incubated with vehicle (0.3% DMSO), Dyngo4a (30 μM) or PitStop2 (15 μM) for 30 min before and during incubation with proteases.
Results are expressed as mean±SE. Two way ANOVA and post hoc Tukey's tests were used to analyze the data.

PAR2 [3] = assay: BRET receptor trafficking, PAR2-RLuc8 with early endosomal marker Rab5a-venus in HEK293 cells; assay type: cell-based; details: for Effect on trypsin evoked internalisation, early endosomal marker: 30 μM inhibitor, 30 minute pre-treatment
Description: as §1, §2

[4] = Protease-evoked mechanical hyperalgesia, von Frey paw withdrawal; assay type: in vivo, mice; details: for Effect on trypsin-evoked mechanical hyperalgesia: 30 min before trypsin
Description: as §3

PAR2 [5] = assay: BRET proximity of PAR2 to KRas (plasma membrane) and Rab5a (endosomes) in HEK cells; assay type: cell-based
Description: (§4) The contribution of endocytosis of protease-activated receptor-2 (PAR2) was evaluated for generation of signals in subcellular compartments that mediate protease-evoked sensitization of nociceptors. Bioluminescence resonance energy transfer (BRET) was used to assess the proximity of PAR2 to resident proteins of the plasma membrane (KRas) and endosomes (Rab5a) in HEK cells. […] Förster resonance energy transfer (FRET) biosensors targeted to the plasma membrane, cytosol or nucleus were used to examine the capacity of proteases to generate signals in subcellular compartments of HEK cells and rat dorsal root ganglia neurons. […] Dynamin inhibitor Dyngo4a, Clathrin inhibitor Pitstop2 and dominant negative β-arrestin inhibited trypsin-evoked endocytosis of PAR2, and prevented trypsin-evoked activation of cytosolic cAMP and PKC and nuclear ERK. […] To examine the link between PAR2 endocytosis, compartmentalized signaling and nociceptor sensitization, perforated patch clamp recordings were made from mouse dorsal root ganglia neurons. […] The effects of proteases on excitability were blocked by the PAR2 antagonist GB88. Thus, canonical and biased proteases sensitize nociceptors by distinct mechanisms. For canonical agonists, PAR2 endocytosis generates compartmentalized signals subcellular compartments that underlie sustained excitability of nociceptive neurons. Inhibiting endosomal signaling of PAR2 may provide a novel method of treating protease-evoked pain.

PAR2 [6] = assay: FRET biosensors for compartmentalised cAMP, PKC and ERK signals in HEK cells and rat dorsal root ganglia neurons; assay type: cell-based
Description: as §4

PAR2 [7] = assay: BRET resensitisation assay, PAR2-RLuc8 with TGN38-venus in HEK293 cells; assay type: cell-based; details: 30 minute pre-treatment, all three proteases
Description: BRET resensitisation assays were used to quantify export of PAR2 from the trans-golgi network (TGN38-venus) upon stimulation of receptor expressed at the cell surface with a variety of proteases. The assays were repeated with various inhibitors of signaling nodes to verify signaling mechanisms behind receptor resensitisation.
After achieving ˜50% confluency within 10 cm dishes HEK293 cells were transiently transfected with PAR2-RLuc8 (1 μg) and TGN38-Venus (4 μg) using PEI as a transfection agent. 24 hours post transfection, cells were seeded into poly-D-lysine coated 96-well isoplates. BRET experiments were conducted the following day. Cells were allowed to equilibrate in either 1×HBSS (+0-28 g HEPES/100 ml, pH 7-40), […] Gallein (Gβγ inhibitor), 100 nM CRT0066101 (PKD inhibitor) or G06983 (PKC inhibitor) at 37° C. for 30 minutes before the addition of colenterazine H [5 μM]. Following a 5 minute incubation BRET was assessed using a LUMIstar Omega microplate reader (BMG LabTech, Offenburg, Germany), with luminescence being read at 535 nm and 475 nm. A 4 minute baseline was obtained before the addition of vehicle (1×HBSS) or protease, measurements were then continued for a further 30 minutes. BRET ratios were calculated using LUMIstar MARS analysis software and then corrected to baseline and vehicle treatments in Microsoft Excel 2013.

PAR2 [8] = assay: Whole population FRET with nuclear ERK sensor NucEKAR in HEK293 cells; assay type: cell-based
Description: (§5) Förster Resonance Energy Transfer (FRET) was used to characterise PAR2 mediated ERK within different subcellular compartments upon stimulation with different agonists. The assays were repeated after employing pharmacological and genetic approaches shown to abolish receptor internalisation to assess the role of internalisation in generating compartmentalised signals.
After achieving ˜50% confluency within 10 cm dishes HEK293 cells were transfected with 2-5 μg of PAR2 with N-terminal HA epitope tag (PAR2-HA) and 2-5 μg of desired FRET biosensor, using PEI as a transfection agent. 24 hours after transfection, cells were seeded into poly-D-lysine coated black 96 well isoplates. FRET was assessed 48 hours after cell plating, following overnight serum restriction. […] When used endocytic inhibitors were diluted in 1×HBSS+1% dimethyl sulfoxide (DMSO). Following the replacement of culture media cells were allowed to equilibrate at 37° C. for 30 minutes. FRET was then determined using a PHERAstar FS microplate reader (BMG LabTech, Offenburg, Germany), cells were sequentially excited at 430 nm with emissions being read at 550 nm and 490 nm. A 4 minute baseline was obtained before the addition of vehicle (1×HBSS+/−1% DMSO), protease or 1 μM PDBu (serving as a positive control). […] FRET ratios were then calculated and corrected to baseline and vehicle treatments in Microsoft Excel 2013.

PAR2 [9] = assay: Whole population FRET with cytosolic ERK sensor CytoEKAR in HEK293 cells; assay type: cell-based
Description: as §5
After achieving ˜50% confluency within 10 cm dishes HEK293 cells were transfected with 2-5 μg of PAR2 with N-terminal HA epitope tag (PAR2-HA) and 2-5 μg of desired FRET biosensor, using PEI as a transfection agent. 24 hours after transfection, cells were seeded into poly-D-lysine coated black 96 well isoplates. FRET was assessed 48 hours after cell plating, following overnight serum restriction. […] When used endocytic inhibitors were diluted in 1×HBSS+1% dimethyl sulfoxide (DMSO). Following the replacement of culture media cells were allowed to equilibrate at 37° C. for 30 minutes. FRET was then determined using a PHERAstar FS microplate reader (BMG LabTech, Offenburg, Germany), cells were sequentially excited at 430 nm with emissions being read at 550 nm and 490 nm. A 4 minute baseline was obtained before the addition of vehicle (1×HBSS+/−1% DMSO), protease or 1 μM PDBu (serving as a positive control). Measurements were then continued every minute for a further 30 minutes. FRET ratios were then calculated and corrected to baseline and vehicle treatments in Microsoft Excel 2013.

[10] = intraplantar 50 μM, 30 min before protease

Effect on cathepsin S- or elastase-induced decrease in rheobase (sustained excitability) at 30 min (DRG neurons)	Molecule	Effect on trypsin evoked internalisation, plasma membrane marker (PAR2 [1])	Effect of inhibitor alone on rheobase (DRG neurons)	Effect on trypsin-induced decrease in rheobase (sustained excitability) at 30 min (DRG neurons)	Effect on protease induced decrease in rheobase (initial hyperexcitability) at 0 min (DRG neurons)	Effect on trypsin evoked internalisation, early endosomal marker (PAR2 [3])	Effect on trypsin-evoked mechanical hyperalgesia ([4]; intraplantar 50 μM)	Effect on trypsin-evoked endocytosis of PAR2 (PAR2 [5])	Effect on trypsin-evoked activation of cytosolic cAMP and PKC and nuclear ERK (PAR2 [6])	Effect on protease induced PAR2 trafficking away from the trans-golgi network (PAR2 [7])	further results
no effect and not	O=C(N/N=C/c1cc(O)c(O)cc1O)c1cc2ccccc2cc1O [Dyngo4a, reference compound]	less pronounced inhibition	Neither vehicle, PitStop2 nor Dyngo4a alone affected rheobase	prevented	did not affect	less pronounced inhibition	inhibited	inhibited	prevented	–	Effect on trypsin-, Cat-S- or elastase-evoked edema [2, 10]: did not affect; Effect on Cat-S- or elastase-evoked mechanical hyperalgesia [4, 10]: did not affect
–	CC[C@@H](N)CNc1ccnc(-c2cc(-c3cnn(C)c3)ccc2O)n1.Cl.Cl [CRT0066101]	–	–	–	–	–	–	–	–	Less prominent effects	–
–	O=C1OC2(c3ccccc31)c1ccc(O)c(O)c1Oc1c2ccc(O)c1O [Gallein]	–	–	–	–	–	–	–	–	reduced PAR2 trafficking away from the trans-golgi network	–
–	elastase	–	–	–	–	–	–	–	–	–	Ability of agonist to produce ERK signals within the nucleus (PAR2 [8]): not; Change in BRET between PAR2 and plasma membrane marker upon agonist stimulation (PAR2 [1]; trypsin 10 nM): not observed; Edema after intraplantar injection of protease ([2]; ipsilateral paw): edema of the ipsilateral paw that was maximal after 4 h; Effect of protease on excitability (rheobase) of DRG neurons (DRG neurons; 0 min and 30 min after washing): immediate increase in excitability; Ability of agonist to produce ERK signals within the cytoplasm (PAR2 [9]): not; Change in BRET between PAR2 and early endosomal marker upon agonist stimulation (PAR2 [3]; trypsin 10 nM): not observed; Mechanical hyperalgesia after intraplantar injection of protease ([4]; ipsilateral paw): caused mechanical hyperalgesia of the ipsilateral paw that was sustained for at least 4 h; PAR2 endocytosis induced by agonist (PAR2 [5]; HEK cells): did not induce PAR2 endocytosis; Signals generated by protease in subcellular compartments (PAR2 [6]): only activated cAMP and PKC at the plasma membrane and ERK in the cytosol
–	COc1ccc2c(c1)c(C1=C(c3c[nH]c4ccccc34)C(=O)NC1=O)cn2CCCN(C)C [G06983]	–	–	–	–	–	–	–	–	Less prominent effects	–
no effect	O=C1NC(=NS(=O)(=O)c2cccc3ccccc23)S/C1=C\c1ccc(Br)cc1 [PitStop2, reference compound]	reduced the magnitude of BRET	Neither vehicle, PitStop2 nor Dyngo4a alone affected rheobase	prevented	did not affect	reduced the magnitude of BRET	inhibited	inhibited	prevented	–	Effect on cathepsin S- or elastase-induced decrease in rheobase (sustained excitability) at 30 min (DRG neurons; listed as Pitstop2): not; Effect on trypsin evoked cytosolic ERK phosphorylation (PAR2 [9]; 30 μM inhibitor, 30 minute pre-treatment): diminished
